# pIC50: −log10 of the molar value. Starred links: 1 amine or outer side, 2 acyl side, 3 side chain; linkers in the order of their positions; H or OH if unused. Positions of bridges follow the written chain, without caps; N, C: chain ends. Non-standard residues stand in square brackets, D forms with d. Residues, ends and D or L forms follow the SMILES beside them. Groups on a side chain read outwards from the residue. *: point of attachment. Trp(1-CH2CO2Me) = COC(=O)Cn1cc(C[C@H](N)C(=O)O)c2ccccc21; Trp(1-CH2COOH) = N[C@@H](Cc1cn(CC(=O)O)c2ccccc12)C(=O)O; Benzoyl(2-(4-MeOPh)) = COc1ccc(-c2ccccc2C(=O)*)cc1; Hyp = O=C(O)[C@@H]1C[C@@H](O)CN1; X34 = O=C(c1c2ccccc2cc2ccccc12)*; X35 = Cc1n[nH]c2c(NC(=S)*)cccc12; X3 = S=C(Nc1ccc(Oc2ccccc2)cc1)*; X11 = S=C(Nc1ccccc1-c1ccccc1)*; X60 = Cc1cc2cc(NC(=S)*)ccc2o1; X69 = c1ccc(-c2ccc(N*)cc2)cc1; NMeNle = CCCC[C@H](NC)C(=O)O; X7 = S=C(Nc1ccc2cc[nH]c2c1)*; X5 = S=C(Nc1cccc2ccccc12)*; X6 = CCCCCCCOc1ccc(N*)cc1; NMeA = CN[C@@H](C)C(=O)O; Dab = NCC[C@H](N)C(=O)O; X76 = Fc1cc(N*)cc(F)c1F; Dap = NC[C@H](N)C(=O)O; X51 = Cc1cccc(Cl)c1N*; CO = O=C([*:1])[*:2]; NHPh = c1ccc(N*)cc1
# Molecular target: T1, PD-1/PD-L1 (Homo sapiens, UniProt Q9NZQ7)
# T1 construct: TVMV protease site linker (C); made in house; host or cells: HEK293T cells
# Experiment: PD-1/PD-L1 Homogenous Time-Resolved Fluorescence (HTRF) binding assay
# Conditions: not given
# Method in brief: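 Compounds preincubated 15 min with PD-L1-His (10 nM final), then PD-1-Ig (20 nM final) added for 15 min in dPBS with 0.1% BSA, 0.05% Tween-20. Detection by Eu-cryptate anti-Ig (1 nM) and APC anti-His (20 nM) HTRF.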
# T1 sequence (Q9NZQ7 18-239): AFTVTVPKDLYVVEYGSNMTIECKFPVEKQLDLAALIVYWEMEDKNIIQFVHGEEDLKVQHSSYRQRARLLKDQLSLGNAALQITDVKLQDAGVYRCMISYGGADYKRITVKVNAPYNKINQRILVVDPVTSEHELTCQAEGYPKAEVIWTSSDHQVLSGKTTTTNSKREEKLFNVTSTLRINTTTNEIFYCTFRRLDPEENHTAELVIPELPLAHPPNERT
row,SMILES,pIC50
1,CCCC[C@H]1C(=O)N(C)[C@@H](CCCC)C(=O)N[C@@H](CC(C)C)C(=O)N[C@H](C(=O)NCC(N)=O)CSCC(=O)N[C@@H](Cc2ccc(O)cc2)C(=O)N(C)[C@@H](C)C(=O)N[C@@H](CC(N)=O)C(=O)N2CCC[C@H]2C(=O)N[C@@H](CNC(=O)Nc2ccc(-c3ccccc3)cc2)C(=O)N[C@@H](CC(C)C)C(=O)N2C[C@H](O)C[C@H]2C(=O)N[C@@H](Cc2c[nH]c3ccccc23)C(=O)N[C@@H](CCNC(=O)Nc2ccc(-c3ccccc3)cc2)C(=O)N[C@@H](Cc2cn(CC(=O)O)c3ccccc23)C(=O)N1C [Example 1011] ({CH2CO}-Y[NMeA]NP[Dap]([CO-X69])L[Hyp]W[Dab]([CO-X69])[Trp(1-CH2COOH)][NMeNle][NMeNle]LCG-NH2; thioether N-14),7.77

# Same assay, conditions: PD-L1-His 10 nM pre-incubated with inhibitor, PD-1-Ig 20 nM; read-out: HTRF IC50
row,SMILES,pIC50
1,CCCC[C@H]1C(=O)N(C)[C@@H](CCCC)C(=O)N[C@@H](CC(C)C)C(=O)N[C@H](C(=O)NCC(N)=O)CSCC(=O)N[C@@H](Cc2ccc(O)cc2)C(=O)N(C)[C@@H](C)C(=O)N[C@@H](CC(N)=O)C(=O)N2CCC[C@H]2C(=O)N[C@@H](CNC(=O)Nc2cc(F)c(F)c(F)c2)C(=O)N[C@@H](CC(C)C)C(=O)N2C[C@H](O)C[C@H]2C(=O)N[C@@H](Cc2c[nH]c3ccccc23)C(=O)N[C@@H](CCNC(=O)Nc2cc(F)c(F)c(F)c2)C(=O)N[C@@H](Cc2cn(CC(=O)O)c3ccccc23)C(=O)N1C [Example 1012] ({CH2CO}-Y[NMeA]NP[Dap]([CO-X76])L[Hyp]W[Dab]([CO-X76])[Trp(1-CH2COOH)][NMeNle][NMeNle]LCG-NH2; thioether N-14),8.32
2,CCCC[C@H]1C(=O)N(C)[C@@H](CCCC)C(=O)N[C@@H](CC(C)C)C(=O)N[C@H](C(=O)NCC(N)=O)CSCC(=O)N[C@@H](Cc2ccc(O)cc2)C(=O)N(C)[C@@H](C)C(=O)N[C@@H](CC(N)=O)C(=O)N2CCC[C@H]2C(=O)N[C@@H](CNC(=O)c2ccccc2-c2ccc(OC)cc2)C(=O)N[C@@H](CC(C)C)C(=O)N2C[C@H](O)C[C@H]2C(=O)N[C@@H](Cc2c[nH]c3ccccc23)C(=O)N[C@@H](CCN)C(=O)N[C@@H](Cc2cn(CC(=O)OC)c3ccccc23)C(=O)N1C [Example 1057] ({CH2CO}-Y[NMeA]NP[Dap](Benzoyl(2-(4-MeOPh)))L[Hyp]W[Dab][Trp(1-CH2CO2Me)][NMeNle][NMeNle]LCG-NH2; thioether N-14),8.49
3,CCCCCCCOc1ccc(NC(=O)NC[C@@H]2NC(=O)[C@@H]3CCCN3C(=O)[C@H](CC(N)=O)NC(=O)[C@H](C)N(C)C(=O)[C@H](Cc3ccc(O)cc3)NC(=O)CSC[C@@H](C(=O)NCC(N)=O)NC(=O)[C@H](CC(C)C)NC(=O)[C@H](CCCC)N(C)C(=O)[C@H](CCCC)N(C)C(=O)[C@H](Cc3cn(CC(=O)O)c4ccccc34)NC(=O)[C@H](CCN)NC(=O)[C@H](Cc3c[nH]c4ccccc34)NC(=O)[C@@H]3C[C@@H](O)CN3C(=O)[C@H](CC(C)C)NC2=O)cc1 [Example 1099] ({CH2CO}-Y[NMeA]NP[Dap]([CO-X6])L[Hyp]W[Dab][Trp(1-CH2COOH)][NMeNle][NMeNle]LCG-NH2; thioether N-14),8.59
4,CCCC[C@H]1C(=O)N(C)[C@@H](CCCC)C(=O)N[C@@H](CC(C)C)C(=O)N[C@H](C(=O)NCC(N)=O)CSCC(=O)N[C@@H](Cc2ccc(O)cc2)C(=O)N(C)[C@@H](C)C(=O)N[C@@H](CC(N)=O)C(=O)N2CCC[C@H]2C(=O)N[C@@H](CNC(=O)c2c3ccccc3cc3ccccc23)C(=O)N[C@@H](CC(C)C)C(=O)N2C[C@H](O)C[C@H]2C(=O)N[C@@H](Cc2c[nH]c3ccccc23)C(=O)N[C@@H](CCNC(=O)c2c3ccccc3cc3ccccc23)C(=O)N[C@@H](Cc2cn(CC(=O)OC)c3ccccc23)C(=O)N1C [Example 2006] ({CH2CO}-Y[NMeA]NP[Dap](X34)L[Hyp]W[Dab](X34)[Trp(1-CH2CO2Me)][NMeNle][NMeNle]LCG-NH2; thioether N-14),5.80
5,CCCC[C@H]1C(=O)N(C)[C@@H](CCCC)C(=O)N[C@@H](CC(C)C)C(=O)N[C@H](C(=O)NCC(N)=O)CSCC(=O)N[C@@H](Cc2ccc(O)cc2)C(=O)N(C)[C@@H](C)C(=O)N[C@@H](CC(N)=O)C(=O)N2CCC[C@H]2C(=O)N[C@@H](CNC(=O)Nc2ccccc2)C(=O)N[C@@H](CC(C)C)C(=O)N2C[C@H](O)C[C@H]2C(=O)N[C@@H](Cc2c[nH]c3ccccc23)C(=O)N[C@@H](CCN)C(=O)N[C@@H](Cc2cn(CC(=O)O)c3ccccc23)C(=O)N1C [Example 1056] ({CH2CO}-Y[NMeA]NP[Dap]([CO-NHPh])L[Hyp]W[Dab][Trp(1-CH2COOH)][NMeNle][NMeNle]LCG-NH2; thioether N-14),8.51

# Continued, values first:
row,pIC50,SMILES
1,9.30,CCCC[C@H]1C(=O)N(C)[C@@H](CCCC)C(=O)N[C@@H](CC(C)C)C(=O)N[C@H](C(=O)NCC(N)=O)CSCC(=O)N[C@@H](Cc2ccc(O)cc2)C(=O)N(C)[C@@H](C)C(=O)N[C@@H](CC(N)=O)C(=O)N2CCC[C@H]2C(=O)N[C@@H](CNC(=O)Nc2c(C)cccc2Cl)C(=O)N[C@@H](CC(C)C)C(=O)N2C[C@H](O)C[C@H]2C(=O)N[C@@H](Cc2c[nH]c3ccccc23)C(=O)N[C@@H](CCNC(=O)Nc2c(C)cccc2Cl)C(=O)N[C@@H](Cc2cn(CC(=O)O)c3ccccc23)C(=O)N1C [Example 1107] ({CH2CO}-Y[NMeA]NP[Dap]([CO-X51])L[Hyp]W[Dab]([CO-X51])[Trp(1-CH2COOH)][NMeNle][NMeNle]LCG-NH2; thioether N-14)
2,8.42,CCCC[C@H]1C(=O)N(C)[C@@H](CCCC)C(=O)N[C@@H](CC(C)C)C(=O)N[C@H](C(=O)NCC(N)=O)CSCC(=O)N[C@@H](Cc2ccc(O)cc2)C(=O)N(C)[C@@H](C)C(=O)N[C@@H](CC(N)=O)C(=O)N2CCC[C@H]2C(=O)N[C@@H](CNC(=S)Nc2ccccc2-c2ccccc2)C(=O)N[C@@H](CC(C)C)C(=O)N2C[C@H](O)C[C@H]2C(=O)N[C@@H](Cc2c[nH]c3ccccc23)C(=O)N[C@@H](CCN)C(=O)N[C@@H](Cc2cn(CC(=O)O)c3ccccc23)C(=O)N1C [Example 1085] ({CH2CO}-Y[NMeA]NP[Dap](X11)L[Hyp]W[Dab][Trp(1-CH2COOH)][NMeNle][NMeNle]LCG-NH2; thioether N-14)
3,8.34,CCCC[C@H]1C(=O)N(C)[C@@H](CCCC)C(=O)N[C@@H](CC(C)C)C(=O)N[C@H](C(=O)NCC(N)=O)CSCC(=O)N[C@@H](Cc2ccc(O)cc2)C(=O)N(C)[C@@H](C)C(=O)N[C@@H](CC(N)=O)C(=O)N2CCC[C@H]2C(=O)N[C@@H](CNC(=S)Nc2cccc3c(C)n[nH]c23)C(=O)N[C@@H](CC(C)C)C(=O)N2C[C@H](O)C[C@H]2C(=O)N[C@@H](Cc2c[nH]c3ccccc23)C(=O)N[C@@H](CCN)C(=O)N[C@@H](Cc2cn(CC(=O)O)c3ccccc23)C(=O)N1C [Example 3066] ({CH2CO}-Y[NMeA]NP[Dap](X35)L[Hyp]W[Dab][Trp(1-CH2COOH)][NMeNle][NMeNle]LCG-NH2; thioether N-14)
4,7.96,CCCC[C@H]1C(=O)N(C)[C@@H](CCCC)C(=O)N[C@@H](CC(C)C)C(=O)N[C@H](C(=O)NCC(N)=O)CSCC(=O)N[C@@H](Cc2ccc(O)cc2)C(=O)N(C)[C@@H](C)C(=O)N[C@@H](CC(N)=O)C(=O)N2CCC[C@H]2C(=O)N[C@@H](CNC(=S)Nc2ccc(Oc3ccccc3)cc2)C(=O)N[C@@H](CC(C)C)C(=O)N2C[C@H](O)C[C@H]2C(=O)N[C@@H](Cc2c[nH]c3ccccc23)C(=O)N[C@@H](CCNC(=S)Nc2ccc(Oc3ccccc3)cc2)C(=O)N[C@@H](Cc2cn(CC(=O)O)c3ccccc23)C(=O)N1C [Example 1046] ({CH2CO}-Y[NMeA]NP[Dap](X3)L[Hyp]W[Dab](X3)[Trp(1-CH2COOH)][NMeNle][NMeNle]LCG-NH2; thioether N-14)
5,8.39,CCCC[C@H]1C(=O)N(C)[C@@H](CCCC)C(=O)N[C@@H](CC(C)C)C(=O)N[C@H](C(=O)NCC(N)=O)CSCC(=O)N[C@@H](Cc2ccc(O)cc2)C(=O)N(C)[C@@H](C)C(=O)N[C@@H](CC(N)=O)C(=O)N2CCC[C@H]2C(=O)N[C@@H](CNC(=S)Nc2ccc3cc[nH]c3c2)C(=O)N[C@@H](CC(C)C)C(=O)N2C[C@H](O)C[C@H]2C(=O)N[C@@H](Cc2c[nH]c3ccccc23)C(=O)N[C@@H](CCN)C(=O)N[C@@H](Cc2cn(CC(=O)O)c3ccccc23)C(=O)N1C [Example 3049] ({CH2CO}-Y[NMeA]NP[Dap](X7)L[Hyp]W[Dab][Trp(1-CH2COOH)][NMeNle][NMeNle]LCG-NH2; thioether N-14)
6,8.55,CCCC[C@H]1C(=O)N(C)[C@@H](CCCC)C(=O)N[C@@H](CC(C)C)C(=O)N[C@H](C(=O)NCC(N)=O)CSCC(=O)N[C@@H](Cc2ccc(O)cc2)C(=O)N(C)[C@@H](C)C(=O)N[C@@H](CC(N)=O)C(=O)N2CCC[C@H]2C(=O)N[C@@H](CNC(=S)Nc2cccc3ccccc23)C(=O)N[C@@H](CC(C)C)C(=O)N2C[C@H](O)C[C@H]2C(=O)N[C@@H](Cc2c[nH]c3ccccc23)C(=O)N[C@@H](CCNC(=S)Nc2cccc3ccccc23)C(=O)N[C@@H](Cc2cn(CC(=O)O)c3ccccc23)C(=O)N1C [Example 3006] ({CH2CO}-Y[NMeA]NP[Dap](X5)L[Hyp]W[Dab](X5)[Trp(1-CH2COOH)][NMeNle][NMeNle]LCG-NH2; thioether N-14)
7,8.55,CCCC[C@H]1C(=O)N(C)[C@@H](CCCC)C(=O)N[C@@H](CC(C)C)C(=O)N[C@H](C(=O)NCC(N)=O)CSCC(=O)N[C@@H](Cc2ccc(O)cc2)C(=O)N(C)[C@@H](C)C(=O)N[C@@H](CC(N)=O)C(=O)N2CCC[C@H]2C(=O)N[C@@H](CNC(=S)Nc2ccc3oc(C)cc3c2)C(=O)N[C@@H](CC(C)C)C(=O)N2C[C@H](O)C[C@H]2C(=O)N[C@@H](Cc2c[nH]c3ccccc23)C(=O)N[C@@H](CCN)C(=O)N[C@@H](Cc2cn(CC(=O)O)c3ccccc23)C(=O)N1C [Example 3055] ({CH2CO}-Y[NMeA]NP[Dap](X60)L[Hyp]W[Dab][Trp(1-CH2COOH)][NMeNle][NMeNle]LCG-NH2; thioether N-14)
